Reference: patent EP0463456A1, “Phosphorus-containing HMG-CoA reductase inhibitors, new intermediates and their use” (E.R. SQUIBB & SONS, INC., priority 1990, dated 1992)

Tested on: cholesterol biosynthesis in rats
Assay: In vivo effect on cholesterol biosynthesis in rats (14C-Acetate Model; plasma 14C-nonsaponifiable lipid)
Design: species or system Male Sprague/Dawley rats
Details: dose suppressing cholesterol synthesis in vivo by 50 percent
Procedure: SQ 34,346 in oral or IV dosage form was tested in vivo for its effect on cholesterol biosynthesis in rats (^14C-Acetate Model).
The following in vivo tests employed a rat model system to determine the in vivo cholesterol synthesis inhibitory activity of compounds which show cholesterol synthesis inhibition in whole cell systems (freshly isolated rat hepatocytes and cultured human skin fibroblasts), and which are potent inhibitors of HMG CoA reductase.
The method used for iv and po drug testing were adapted from a procedure originally described by Sandoz (U.S. Patent No. 4,613,610, Sept. 23, 1986, and Int'I Publication No. WO 86/00367, Derwent Nos. 86271640 and 8628274). […]
For iv testing, the salt forms of test compounds were routinely dissolved in saline and injected iv into the tail vein 5 minutes before ^14C-acetate injection. […] Cholesterol synthesis was measured by determining the level of ^14C-nonsaponifiable lipid present in one mL of plasma; the method used is a modification of the method described by Dugan, et al, (Dugan, R.E., L.L. Slakey, A.V. Briedis, and J. Porter, Arch. Biochem. Biophys., 152:21 (1972)). […] Samples were counted for both ^3H and ^14C in 10 mL Optiflour scintillation fluid using a Beckman LS3801 counter programed for double label counting. […]

Substance: (S)-4-[[[4-(4-Fluorophenyl)-1,2-bis(1-methylethyl)-5-phenyl-1H-pyrrol-3-yl]-ethynyl]hydroxyphosphinyl]-3-hydroxybutanoic acid, dilithium salt [SQ 34,346]
- ED50 (i.v., injected into tail vein 5 minutes before 14C-acetate): 0.05 mg/kg
- ED50 (p.o., given 30 minutes before 14C-acetate): 1.13 mg/kg
